# Molecular target: T1, HDAC6 (Homo sapiens, UniProt Q9UBN7)
# T1 construct: endogenous in cells; host or cells: MM1S (ATCC CRL-2974)
# T1 sequence (Q9UBN7 1-1215): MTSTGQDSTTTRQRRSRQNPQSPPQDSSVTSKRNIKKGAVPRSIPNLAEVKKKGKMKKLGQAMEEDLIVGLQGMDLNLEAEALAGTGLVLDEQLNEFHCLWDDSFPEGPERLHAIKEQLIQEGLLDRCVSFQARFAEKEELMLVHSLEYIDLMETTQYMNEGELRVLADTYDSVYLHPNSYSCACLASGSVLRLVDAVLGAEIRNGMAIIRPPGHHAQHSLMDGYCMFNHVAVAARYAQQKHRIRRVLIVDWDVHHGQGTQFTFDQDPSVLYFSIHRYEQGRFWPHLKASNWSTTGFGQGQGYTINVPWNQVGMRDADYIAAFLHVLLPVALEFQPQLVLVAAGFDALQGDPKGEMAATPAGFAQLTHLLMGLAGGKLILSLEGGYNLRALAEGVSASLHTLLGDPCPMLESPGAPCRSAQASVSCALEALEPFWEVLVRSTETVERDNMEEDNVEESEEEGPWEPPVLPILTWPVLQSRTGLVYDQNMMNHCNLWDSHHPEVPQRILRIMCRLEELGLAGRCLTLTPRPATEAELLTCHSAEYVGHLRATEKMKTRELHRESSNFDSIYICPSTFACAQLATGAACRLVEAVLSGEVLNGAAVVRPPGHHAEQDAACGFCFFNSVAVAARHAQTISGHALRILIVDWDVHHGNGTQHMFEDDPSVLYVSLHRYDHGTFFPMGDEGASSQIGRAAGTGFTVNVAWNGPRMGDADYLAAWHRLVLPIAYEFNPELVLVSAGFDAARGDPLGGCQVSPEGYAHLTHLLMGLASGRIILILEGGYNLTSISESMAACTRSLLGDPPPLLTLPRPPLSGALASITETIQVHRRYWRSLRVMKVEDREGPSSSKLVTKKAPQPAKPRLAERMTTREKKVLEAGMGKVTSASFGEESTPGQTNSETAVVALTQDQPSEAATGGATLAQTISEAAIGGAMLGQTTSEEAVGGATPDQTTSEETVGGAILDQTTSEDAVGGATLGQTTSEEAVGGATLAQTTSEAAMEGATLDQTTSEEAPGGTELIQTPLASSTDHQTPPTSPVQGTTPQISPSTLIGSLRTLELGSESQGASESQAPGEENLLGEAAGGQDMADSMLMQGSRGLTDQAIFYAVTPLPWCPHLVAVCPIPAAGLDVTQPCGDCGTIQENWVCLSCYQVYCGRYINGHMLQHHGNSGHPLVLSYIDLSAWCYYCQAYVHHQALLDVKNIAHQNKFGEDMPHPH
# Experiment: In-cell ELISA of HDAC6 protein level in MM1S cells
# Type: cell-based
# Settings: 6 h; for DC50 / Dmax: 0.1 nM to 1 μM, nonlinear fit, ± SD; for Dmax / inhibition at 0.01 µM / inhibition at 0.1 µM: MM1.S; for Dmax: read-out: Dmax (Vehicle %); for inhibition at 0.01 µM: n=3, read-out: Degradation (%) 10 nM; for inhibition at 0.1 µM: n=3, read-out: Degradation (%) 100 nM
# Procedure: FIG. 9 is a histogram depicting the results of screening of compounds for HDAC6 degradation activity by in-cell ELISA. MM1S cells were treated with compounds at 100 nM (blue bars) or 10 nM (red bars) for 6 h. Data was normalized to vehicle (DMSO)-treated group and the bar graph represents as mean of relative HDAC6 protein level (n=3) with ±SD as error bar. Statistical significance was analyzed by one-way ANOVA. Not significant (ns) P>0.05, *P≤0.05, **P≤0.01, ***P≤0.001, ****P≤0.0001.
# FIG. 11 is a graph depicting dose response of selected degrader candidates. MM1S cells were treated for 6 h and analyzed by in-cell ELISA. Data was normalized to vehicle (DMSO)-treated group and dot plot represented as mean relative expression (n=3) with ±SD as error bar. Nonlinear fitting of inhibitor concentration vs. response (three parameters) was generated by GraphPad Prism with R2 from 0.97 to 0.99.
# FIG. 15 is a histogram depicting relative HDAC6 expression as a function of linker length for compounds 3a through 3k as described in the Examples section, Part 2. Human MM1S cells were treated with 100 nM degraders for 6 hours and analyzed by in-cell ELISA assay.
# FIG. 17 is a dose-response curve for degraders 3j (n=1), 3k (n=12) and 2, at concentrations from 1 nM to 300 nM for 4 h in MM1S. See the Examples, Part 2.
# To screen the new series of degraders, an in-cell ELISA assay was developed and validated. The compounds were treated at 100 nM and 10 nM in MM1S cells for 6 h. Resulting cells were then fixed and analyzed by in-cell ELISA. […] Degraders including 1 at 100 nM degraded 73.5% to 85.0% of HDAC6 with minor difference. At 10 nM concentration of compounds, obvious structure-activity-relationship (SAR) was observed. […] For example, 12d, 12h, 12i, 12o and 12p all achieved about 70% degradation. Among the C4-linked series, 12d with medium length linker (5+1) achieved most degradation in sub-series 12a-e (m=1). […] Among C5-linked series, the potency of sub-series 12l-p (m=1) increased with the linker length. […] It appeared that both the distance and linking positions contributed to the degradation efficiency. The rigid triazole ring in the middle of the linker likely modulated the plasticity of degrader-bridged ternary complex.
# The amount of cellular HDAC6 was measured in response to concentrations of compounds from 0.1 nM to 1 μM. […] The new degraders had single-digit nanomolar DC50, which was about 3 to 5 fold of improvement from 9.12 nM of degrader 1. […] As discussed above, most PROTACs were designed to avoid degrading other proteins except the targeted POIs. However, in these studies, it was hypothesized that HDAC6 degraders with IKZF degradation will have enhanced anti-proliferation effect MM1S cells.
# MM1S cells were harvested and plated with 5×10^5 cells in 100 μL media per well 96-wells plate. After overnight seeding, 25 μL media containing 5× dosing concentration of the compounds or vehicle was added to each well. After 6-hour treatment at 37° C. in a humidified 5% CO2 atmosphere, cells were fixed by adding 125 μL 8% formaldehyde in TBS buffer (137 mM NaCl, 25 mM Tris, 2.7 mM potassium chloride, pH 7.6) and incubated at room temperature (RT) for 15 minutes. Removal of fixing solution was followed by once rinse and twice washes with TBS-T washing buffer (137 mM NaCl, 20 mM Tris, 0.1% Tween, pH 7.6). Cells were then permeabilized by adding 100 μL 0.1% Triton-X in TBS and incubated at RT for 15 minutes. Removal of permeabilizing solution was followed by once rinse and once wash with TBS-T. Cellular endogenous peroxidases were quenched by adding 100 μL 1% H2O2 in TBS and incubation at RT for 20 minutes. Removal of quenching solution was followed by once rinse and once wash with TBS-T. Non-specific binding sites were blocked by adding […] 5% BSA in TBS-T (with 0.02% NaN3) and incubation at 4° C. overnight. […]
# [1] = 10 nM, 100% minus mean (± SD) relative HDAC6 expression
# [2] = 100 nM, 100% minus mean (± SD) relative HDAC6 expression
SMILES,DC50 [nM],"Degradation (%) 10 nM (10 nM, 100% minus mean (± SD) relative HDAC6 expression, n=3) [%]",Dmax [%],inhibition at 0.01 µM [1] [%],inhibition at 0.1 µM [2] [%],effect on expression of HDAC6 compared with vehicle (10 nM),effect on expression of HDAC6 compared with vehicle (100 nM)
"CCCCN(Cc1ccc(C(=O)NO)cc1)C(=O)Nc1ccccc1 [Next-A, 4-[[butyl[(phenylamino)carbonyl]amino]methyl]-N-hydroxy-benzamide, reference compound]",–,–,–,–,–,didn't affect,very minimal effects
"Nc1cccc2c1C(=O)N(C1CCC(=O)NC1=O)C2=O (stereo not drawn) [Pomalidomide, reference compound]",–,–,–,–,–,didn't affect,very minimal effects

# Now from value to molecule:
DC50 [nM],"Degradation (%) 10 nM (10 nM, 100% minus mean (± SD) relative HDAC6 expression, n=3) [%]",Dmax [%],inhibition at 0.01 µM [1] [%],inhibition at 0.1 µM [2] [%],effect on expression of HDAC6 compared with vehicle (10 nM),effect on expression of HDAC6 compared with vehicle (100 nM),SMILES
9.12,47.9 ± 0.9,84.1 ± 2.41,47.9,73.5 ± 0.3,–,–,O=C(CCCCCCC(=O)N/N=C/c1ccc(OCCOCCOCCn2cc(CNc3cccc4c3C(=O)N(C3CCC(=O)NC3=O)C4=O)nn2)cc1)NO (stereo not drawn) [Compound 1]
1.64,–,86.3 ± 1.7,~70,82.7 ± 1.7,–,–,"CCCCN(Cc1ccc(C(=O)NO)cc1)C(=O)Nc1ccc(OCCCCCn2cc(CNc3cccc4c3C(=O)N(C3CCC(=O)NC3=O)C4=O)nn2)cc1 (stereo not drawn) [Compound 12d, 4-((1-butyl-3-(4-((5-(4-(((2-(2,6-dioxopiperidin-3-yl)-1,3-dioxoisoindolin-4-yl)amino)methyl)-1H-1,2,3-triazol-1-yl)pentyl)oxy)phenyl)ureido)methyl)-N-hydroxybenzamide]"
–,–,–,60.3 ± 1.3,81.2 ± 0.6,–,–,"CCCCN(Cc1ccc(C(=O)NO)cc1)C(=O)Nc1ccc(OCCCn2cc(CNc3ccc4c(c3)C(=O)N(C3CCC(=O)NC3=O)C4=O)nn2)cc1 (stereo not drawn) [Compound 12m, 4-((1-butyl-3-(4-(3-(4-(((2-(2,6-dioxopiperidin-3-yl)-1,3-dioxoisoindolin-5-yl)amino)methyl)-1H-1,2,3-triazol-1-yl)propoxy)phenyl)ureido)methyl)-N-hydroxybenzamide]"
